Source: US20220273660A1, “MEK INHIBITOR FOR TREATMENT OF STROKE” (EDVINCE AB, priority 2019, published 2022)
“Also recorded” adds a separate entry of the source.

Columns and labels:
[1] = tested on: rat middle cerebral arteries; test: Contraction of middle cerebral arteries 48 h after tMCAO, wire myograph; details: for agonist-mediated contraction (% of maximum potassium-mediated contraction): occluded MCAs, 48 h after tMCAO, mean±SD
Method: Mean arterial blood pressure, pCO2, pO2, pH and plasma glucose were measured prior to the occlusion through an arterial tail catheter (Radiometer; LabChart). A rectal thermometer connected to a homoeothermic blanket was used to maintain body temperature at +37° C. during the surgical procedure. An incision was made in the midline of the neck exposing the right common, internal and external carotid arteries. The common and external carotid arteries were permanently ligated by sutures and an incision was made in the common carotid artery. A laser Doppler probe (Perimed, Järfälla, Sweden) was fixed to the thinned skull in the area corresponding to the area supplied by the middle cerebral artery (1 mm posterior to bregma and 6 mm to the right from the midline). A silicone, rubber-coated monofilament (Doccol Corporation, Redlands, Calif., USA) was inserted through the incision until the tip reached the entrance of the right middle cerebral artery (MCA). The occlusion was confirmed by an abrupt reduction of cortical blood flow that was observed using laser Doppler monitoring. After securing the filament, the skin was sutured and anesthesia was discontinued. After two hours of occlusion, the rats were briefly re-anesthetized to remove the filament and allow reperfusion. […] The animals were allowed to recover 48 hours after surgery with free access to food and water before they were anesthetized with CO2 and decapitated. The brains were removed and immediately chilled in ice-cold bicarbonate buffer solution (for composition, see Drugs, Chemicals and Solutions). Right (occluded) and left (non-occluded) middle cerebral arteries were dissected free from adhering tissue and used for myograph studies.
Contractile properties of middle cerebral arteries were examined using a wire Mulvany-Halpern myograph that records isometric tension (Danish Myo Technology A/S, Aarhus, Denmark). Arteries were cut into cylindrical segments (2 mm), and mounted in the myographs by two parallel 40 μm wires inserted through the lumen. The myograph baths contained 5 ml +37° C. bicarbonate buffer solution (for composition, see Drugs, Chemicals and Solutions) continuously aerated with 5% carbon dioxide in oxygen resulting in pH 7.4. […] The other wire was connected to a force displacement transducer attached to an analogue-digital converter (AD Instruments, Chalgrove, UK). The results were recorded on a computer using a Power Lab unit (AD instruments) and the software LabChart (ADInstruments). After the normalization procedure, the arteries were allowed to equilibrate at this tension for 20 min.
The maximum potassium-mediated contraction was used as a reference value (=100%) for contractile capacity. To eliminate endothelial influence, the production of nitric oxide and prostaglandins was blocked with 100 μM L-NG-nitroarginine methyl ester (L-NAME) and 10 μM indomethacin, respectively, which were present in the tissue baths throughout the experiments on the arteries from the in vivo stroke model.
Receptors for 5-hydroxytryptamine receptors (5-HT) were evaluated by adding 5-carboxamidotryptamine (5-CT, a non-selective 5-HT1 agonist) in concentrations ranging from 10^−11 to 10^−5M (Hansen-Schwartz). The angiotensin type 1 (AT1) receptor was evaluated by cumulative applications of Angiotensin II in concentrations ranging from 10^−12 to 10^−6 M. 30 minutes prior to the experiment, the AT2 receptor antagonist PD123319 was added to eliminate any AT2 receptor-mediated effects. […]

[2] = tested on: rat basilar arteries (contractile ETB receptors); test: 48 h organ culture of basilar artery, S6c (ETB agonist)-induced contraction in wire myograph; type: cell-based; details: for inhibition of S6c-induced contraction (initial screening groups): 1 μM inhibitor, S6c contraction relative to 60 mM K+; for inhibition of S6c-induced contraction (initial screening groups) / IC50: 48 h organ culture; for IC50: Rattus norvegicus, inhibition of S6c-induced contraction, read-out: pIC50 (based on the Emax for S6c) (converted)
Method: (§1) Rats were sedated with O2/CO2 (30/70%) and sacrificed by decapitation. Brains were gently removed and chilled in a cold oxygenated buffer solution of the following composition: 119 mM NaCl, 4.6 mM KCl, 1.5 mM CaCl2, 1.2 mM MgCl2, 1.2 mM NaH2PO4, 15 mM NaHCO3 and 5.5 mM Glucose; pH 7.4. The basilar artery (BA) was carefully dissected from the brain in a physiological buffer solution followed by either OC (naïve animals) or directly mounted in a wire myograph (arteries from rats which has undergone surgical procedures). Segments were incubated for 48 hours at 37° C. in humidified 5% CO2/O2 in DMEM supplemented with streptomycin and penicillin with inhibitors or vehicle (DMSO). Culture media was changed after 24 hours.
(§2) For contractility measurements, both incubated BAs (ex vivo) and BAs after surgical procedure (in vivo) were cut into segments and mounted on a pair of metal wires (40 μm) in a myograph bath. The arteries from OC were mounted the same way after 48 hours in media. One wire was attached to a micro-meter screw which allows for fine adjustments of the distance between the wires, controlling the vascular tone.
(§3) The segments were equilibrated in physiological buffer aerated with 95% O2/5% CO2, pH of 7.4, temperature set at 37° C. and the wires were separated for isometric pretension at 2 Nm^−1. The arterial segments were exposed two or three times with 60 mM K^+, by exchanging the buffer with a 60 mM K^+ buffer solution. To maintain equal osmolarity, a proportional amount of Na^+ had been removed from the buffer. An absolute cut-off was set at 2.0 mN K^+max for inclusion of arterial segments from rats that underwent the surgical procedure. Endothelium function was evaluated with the addition of 5-HT (3.10^−7 M) followed by carbachol (10^−5 M). For arteries from the OC the protocol was as followed: first a cumulative concentration-response curve to sarafotoxin 6C (S6c, 10^−14-10^−7 M), followed by a concentration-response curve to endothelin-1 (ET-1, 10^−14-10^−7 M). At peak ET-1 (10^−7 M), the buffer was changed to a Ca^2+-free buffer containing 10^−7 M ET-1 and nimodipine (L-type of voltage dependent Ca^2+ channel entry blocker, 10^−7 M). A concentration-response curve to Ca^2+ (0.0125-3 mM) was then performed. When vasodilation was investigated arteries was precontracted with U46619 (1.10^−7-3.10^−7 M) or K^+ (41 mM) and cumulative concentration-response curves was performed by adding calcitonin gene-related peptide (CGRP, 10^−12-10^−7 M), carbachol (10^−10-10^−5 M) or SNP (10^−11-10^−4 M).
(§4) Contractile responses of each segment were adjusted according to the length of the artery and are expressed as mN/mm (Nm^−1). […] To compare ET-1 sensitivity, arteries were normalized to the percentage of the individual vessel ET-1max. When the artery reached maximum contraction before the last concentration was added, the curves were constrained to the max contraction. The relative log IC50/log EC50 is the concentration corresponding to a response midway between the estimates of the lower and upper plateaus. The Emax is the maximal contraction in the concentration response curve and ET-1max is the maximal contraction to ET-1. All quantitative data is presented as mean±standard error of the mean (SEM), unless otherwise stated.

[3] = tested on: rat subarachnoid haemorrhage model; test: Rat SAH model, intrathecal treatment, myograph of basilar arteries; type: in vivo
Method: as §2
as §3, with “The” for “The segments were equilibrated in physiological buffer aerated with 95% O2/5% CO2, pH of 7.4, temperature set at 37° C. and the wires were separated for isometric pretension at 2 Nm^−1. The”, “A concentration-response curve to Ca^2+ (0.0125-3 mM) was then performed.” left out
If there was only one curve above the cut-off, the concentration-response curve to ET-1 was prioritized. Segments with the highest K^+ response were generally allocated to the concentration-response curve to ET-1. […] The Ca^2+ free buffer solution had similar composition as above, but 1.5 mM CaCl2 was exchanged with 0.03 mM EDTA.
as §4
Rats were anesthetized and prepared for cisternal infusion of autologous blood, which simulates a SAH. Sham-operated rats went through the same procedure, omitting the intracisternal blood injection of 300 μL. At the end of the procedure, a PinPort (PNP3F22, Instech, US) was placed at the end of the ICP catheter to provide access for intrathecal (i.t.) injectable treatments by a PinPort injector (PNP-3M, Instech, US). 24 hours post-surgery, the rats received s.c. injections of Carprofen (Norodyl, 5 mg/kg) (Scanvet, Denmark) for analgesia.
The intrathecal (i.t.) treatment volumes were estimated for a cerebrospinal fluid (CSF) volume of approximately 90 μL (21) and the total dose was administered as three treatments (4 hours, 10 hours and 24 hours) through the PinPort in the ICP catheter placed in the cisterna magna during the surgical procedure. The first and third injections were given under fixation of the rat. […] Animals were given 2.5 ml isotonic saline s.c. to avoid dehydration, immediately after surgery and in conjunction with the 10 hours and 24 hours treatments.

rat basilar arteries = test: 48 h organ culture of basilar artery, endothelium function / vasodilation (carbachol, SNP, CGRP); type: cell-based; details: 1 μM inhibitor; for endothelium function (10-5 M carbachol on arteries precontracted with 5-HT) vs DMSO: 48 h organ culture
Method: as §1, with “Brains were gently removed and chilled in a cold oxygenated buffer solution of the following composition: 119 mM NaCl, 4.6 mM KCl, 1.5 mM CaCl2, 1.2 mM MgCl2, 1.2 mM NaH2PO4, 15 mM NaHCO3 and 5.5 mM Glucose; pH 7.4.” left out
as §2
as §3, with “The” for “The segments were equilibrated in physiological buffer aerated with 95% O2/5% CO2, pH of 7.4, temperature set at 37° C. and the wires were separated for isometric pretension at 2 Nm^−1. The”, “A concentration-response curve to Ca^2+ (0.0125-3 mM) was then performed.” left out

Solubility (statement) = type: physicochemical
[4] = tested on: rat middle cerebral arteries (ETB receptor); details: former studies, same in vitro setup; cited from earlier work
[5] = tested on: rat basilar arteries (contractile ETB receptors); details: cited from earlier work

Compound	inhibition of S6c-induced contraction (initial screening groups) [2]	IC50 [2] [nM]	endothelium function (10-5 M carbachol on arteries precontracted with 5-HT) vs DMSO (rat basilar arteries)	also measured
CC(=O)[C@H]1CC[C@H]2[C@@H]3CCC4=CC(=O)CC[C@]4(C)[C@H]3CC[C@]12C [progesterone]				maximum contractile responses of occluded and non-occluded arteries to S6c, Ang II or 5-CT vs placebo ([1]; ovariectomized rats treated 3 weeks, tMCAO): not affected
Cn1cnc2c(F)c(Nc3ccc(Br)cc3F)c(C(=O)NOCCO)cc21 [Binimetinib]	Some effect	6760		
O=C(NOC[C@H](O)CO)c1ccc(F)c(F)c1Nc1ccc(I)cc1F [PD0325901]	Highly effective; also recorded: almost completely inhibited	19.5	significant better endothelium function; also recorded: significant increase	estimated inhibitor effect in the ex vivo OC study ([2]; at predicted CSF concentration of approximately 10^-7 M): ~75%; nimodipine insensitive ET-1max contraction ([3]; SAH + i.t. treatment, Ca2+ curve, 10^-7 M nimodipine): 1.0±0.3 Nm^−1; endothelium function ([3]; animals treated in vivo i.t. after SAH): No significant changes; Emax following NO donor sodium nitroprusside (SNP) (rat basilar arteries; 48 h OC): significant differences in the Emax; response to CGRP (rat basilar arteries; 48 h OC): No differences; vasodilation in response to carbachol (10^-10-10^-5 M) (rat basilar arteries; 48 h OC, precontracted with U46619 or K+): improved vasodilation
Cn1c(=O)c(F)c(Nc2ccc(I)cc2F)c2c(=O)n(C[C@@H](O)CO)cnc21 [TAK-733]	Highly effective	129	significant better endothelium function; also recorded: significant increase	
O=C(c1ccc(F)c(F)c1Nc1ccc(I)cc1F)N1CC(O)([C@@H]2CCCCN2)C1 [Cobimetinib]	Highly effective	56.2		
N#CC(=C(/N)Sc1ccccc1N)/C(C#N)=C(\N)Sc1ccccc1N [U0126]	Not effective; also recorded: no significant effect		poor endothelial response	solubility (Solubility (statement)): poor solubility; concentration used for equivalent inhibition of ETB-receptor mediated contraction [4]: 10 µM; effect on ETB specific S6c-induced contractility ([5]; 10 μM, 48 hours OC, known from earlier work): inhibitory effect; established threshold for efficacy ([5]; used till date): 10 µM
CNS(=O)(=O)Nc1nccc(Cc2c(C)c3ccc(Oc4ncccn4)cc3oc2=O)c1F [RO5126766]	Some effect	2090		
sarafotoxin 6c [S6c]				agonist-mediated contraction (% of maximum potassium-mediated contraction) ([1]; intact females): 22±16%; agonist-mediated contraction (% of maximum potassium-mediated contraction) ([1]; ovariectomized females): 8±9%
NCCc1c[nH]c2ccc(C(N)=O)cc12 [5-CT, 5-carboxamidotryptamine]				agonist-mediated contraction (% of maximum potassium-mediated contraction) ([1]; intact females): 27±18%; agonist-mediated contraction (% of maximum potassium-mediated contraction) ([1]; ovariectomized females): 8±11%
COc1cc(F)c(F)c(Nc2ccc(I)cc2F)c1NS(=O)(=O)C1(C[C@H](O)CO)CC1 [Refametinib]	Borderline effective			
